Laboratory results published in patent publication US11542249B2, “BTK inhibitor compounds” (Eli Lilly and Company, priority 2017, dated 2023).

What was measured:
human BTK = human BTK (Homo sapiens (Human), UniProt Q06187); test: BTK LANTHASCREEN Eu Kinase Binding Assay; settings: IC50 value ± standard deviation; full-length His-labeled BTK, kinase tracer 236; read-out: hBTK Rel IC50
Method: (§1) BTK and EGFR in Vitro Assays:
(§2) The BTK and EGFR biochemical assays utilize LANTHASCREEN® Eu Kinase Binding Assays from Thermo Fisher Scientific, measuring the binding of the kinase with a […] tracer. The assay buffer consists of 50 mM HEPES pH 7.5, 0.01% BRU™-35, 10 mM MgCl2, 1 mM EGTA, and 1 mM DTT. The test compounds are diluted and added to the assay plate with a Labcyte ECHO® 555 liquid handler. The compounds are tested in 10 point dose response curves (100 μM-0.005 μM) with a maximum DMSO concentration of 1%. The assays are performed in 20 μL in low-volume 384-well white proxiplates. For the BTK assay, the concentration of full-length His-labeled BTK in the assay is 5 nM, the Eu-anti-His antibody is 2 nM, and the kinase tracer 236 is 60 nM. For the EGFR assay, the concentration of truncated (amino acids 668-1210) GST-labeled EGFR is 5 nM, the Eu-anti-GST antibody is 2 nM, and the kinase tracer 199 is 10 nM. The components of the assay (compound, enzyme/antibody, tracer) are assembled and incubated for 30 min prior to being read on a Perkin-Elmer EnVision with excitation at 340 nm, tracer emission at 665 nm, and antibody emission at 615 nm. The signal ratio is converted to percent inhibition using the following equation: % Inhibition=100−[(Test Compound−Median Minimum)/(Median Maximum−Median Minimum)×100].
(§3) The following Table 1 and Table 2 describes the relative IC50 data vs. human BTK, human EGFR, and human whole blood CD69.

human EGFR = human EGFR (Homo sapiens (Human), UniProt P00533); test: EGFR LANTHASCREEN Eu Kinase Binding Assay; settings: IC50 value ± standard deviation; truncated GST-labeled EGFR, kinase tracer 199; read-out: hEGFR Rel IC50
Method: as §1, §2

[1] = test system: activated B cells in human whole blood (CD69); test: Human Whole Blood CD69 in vitro assay (B cell activation, flow cytometry); assay type: cell-based; settings: IC50 value ± standard deviation, anti-human-IgD-Dextran stimulation, read-out: HWB CD69 Rel IC50
Method: Human Whole Blood CD69 in Vitro Assay:
The HWB CD69 assay measures activated B cells in human whole blood using a flow cytometer. Compounds are diluted and added to assay plates with a Labcyte ECHO® 555 liquid handler. Compounds are tested in 10 point dose response curves (20 μM-0.001 μM) in 96-well v-bottom plates with a maximum DMSO concentration of 0.2%. Fresh blood from individual healthy volunteer is mixed with HEPES (0.5 ml HEPES added per 10 ml blood) and 100 μl/well is added to compound plates. The plates are sealed and incubated in a 37° C. incubator for 3 h. Anti-human-IgD-Dextran is added to each well to give a final concentration of 100 ng/ml, mixed, and put back into the incubator. After 1 h, the cells are washed with cold FACS buffer and transferred to a deep well plate. The cells are incubated with anti-human CD69-PE (BIOLEGEND®, clone FN50) and anti-human CD19-APC (BIOLEGEND®, clone HIB19) antibodies on ice for 20 min. The cells are washed and incubated in eBioscience™ 1-step Fix/Lyse solution (10×) at RT to lyse the red blood cells and fix the other cells. The white cells are pelleted and washed in FACS buffer and then brought up in read buffer. The suspended cells are transferred to 96-well round bottom plates and read on an IntelliCyt iQue® Screener Plus flow cytometer. From the SSC (Side Scatter Channel) vs FSC (Forward Scatter Channel) graph, the lymphocytes are identified. Lymphocytes are identified with gated on positive CD19 marker for quantify CD69 (a marker of activated B lymphocytes) MFI (mean fluorescent intensity/cell). The signal ratio is converted to percent inhibition using the following equation: % Inhibition=100−[(Test Compound−Median Min)/(Median Max−Median Min)×100].
as §3

Sequence of human EGFR (P00533 668-1210): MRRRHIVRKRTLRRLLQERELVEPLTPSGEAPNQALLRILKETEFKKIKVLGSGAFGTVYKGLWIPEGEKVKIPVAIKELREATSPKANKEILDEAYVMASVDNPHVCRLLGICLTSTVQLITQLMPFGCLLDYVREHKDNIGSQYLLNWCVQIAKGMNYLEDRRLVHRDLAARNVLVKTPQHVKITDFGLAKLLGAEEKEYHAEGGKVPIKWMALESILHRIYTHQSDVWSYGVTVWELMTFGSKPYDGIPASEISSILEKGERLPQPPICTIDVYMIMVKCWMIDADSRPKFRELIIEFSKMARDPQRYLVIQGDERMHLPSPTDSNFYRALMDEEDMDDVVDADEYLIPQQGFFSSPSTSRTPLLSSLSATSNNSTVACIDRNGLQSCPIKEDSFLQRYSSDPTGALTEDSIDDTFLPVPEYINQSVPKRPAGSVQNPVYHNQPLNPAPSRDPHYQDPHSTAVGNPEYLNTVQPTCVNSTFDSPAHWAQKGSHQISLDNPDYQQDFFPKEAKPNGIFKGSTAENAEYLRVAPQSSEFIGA
Sequence of human BTK (Q06187 whole entry): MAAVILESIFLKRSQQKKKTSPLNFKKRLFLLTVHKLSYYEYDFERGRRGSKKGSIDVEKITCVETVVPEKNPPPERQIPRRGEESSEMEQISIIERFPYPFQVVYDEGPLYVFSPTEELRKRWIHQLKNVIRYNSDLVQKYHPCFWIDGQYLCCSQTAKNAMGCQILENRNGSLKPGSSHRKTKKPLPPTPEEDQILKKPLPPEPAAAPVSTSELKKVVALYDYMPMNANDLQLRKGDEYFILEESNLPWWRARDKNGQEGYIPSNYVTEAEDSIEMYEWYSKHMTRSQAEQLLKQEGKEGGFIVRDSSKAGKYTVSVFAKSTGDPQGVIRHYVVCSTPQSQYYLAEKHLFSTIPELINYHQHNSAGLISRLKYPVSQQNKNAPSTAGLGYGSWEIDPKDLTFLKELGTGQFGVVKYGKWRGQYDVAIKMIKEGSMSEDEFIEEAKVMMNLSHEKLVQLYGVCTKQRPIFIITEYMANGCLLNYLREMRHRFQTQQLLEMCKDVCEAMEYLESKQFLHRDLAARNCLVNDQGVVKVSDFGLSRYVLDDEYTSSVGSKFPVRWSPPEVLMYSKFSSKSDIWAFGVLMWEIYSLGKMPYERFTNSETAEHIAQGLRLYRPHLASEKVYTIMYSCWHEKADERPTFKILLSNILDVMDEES

Row | IC50 (human BTK) [nM] | IC50 (human EGFR) [nM] | IC50 [1] [nM] | Structure (SMILES)
1 | 6.01 ± 0.579 | 1370 ± 1210 | 219 ± 86 | C=CC(=O)N1CC[C@H](Nc2cncc(-c3cnc(Nc4cccc(Cl)c4)nc3)c2)C1 [Example 15]
2 | 43.2 ± 11.9 | 1080 ± 229 | 815 ± 110 | C=CC(=O)N1CC(Nc2cncc(-c3cnc(Oc4cc(F)cc(F)c4)nc3)n2)C1 [Example 30, 1-[3-[[6-[2-(3,5-difluorophenoxy)pyrimidin-5-yl]pyrazin-2-yl]amino]azetidin-1-yl]prop-2-en-1-one]
3 | < 5 | 306 ± 33.8 | 136 ± 66.8 | C=CC(=O)N1CC(Nc2cncc(-c3cnc(Nc4cccc(OC(F)(F)F)c4)nc3)n2)C1 [Example 37, 1-[3-[[6-[2-[3-(trifluoromethoxy)anilino]pyrimidin-5-yl]pyrazin-2-yl]amino]azetidin-1-yl]prop-2-en-1-one]
4 | 31 ± 12.4 | 3390 ± 2070 | 227 ± 81.1 | C=CC(=O)N1CCC(Nc2cncc(-c3cnc(Nc4ccccn4)nc3)c2)CC1 [Example 22, 1-[4-[[5-[2-(2-pyridylamino)pyrimidin-5-yl]-3-pyridyl]amino]-1-piperidyl]prop-2-en-1-one]
5 | 24.1 ± 4.28 | 26500 ± 2880 | 475 ± 166 | CN(C)C/C=C/C(=O)N1CCC(Nc2cncc(-c3cnc(Nc4cccc(Cl)c4)nc3)c2)CC1 [Example 23, (E)-1-[4-[[5-[2-(3-chloroanilino)pyrimidin-5-yl]-3-pyridyl]amino]-1-piperidyl]-4-(dimethylamino)but-2-en-1-one]
6 | 6.89 ± 2.62 | 121 ± 66.4 | 141 ± 41.3 | C=CC(=O)N1CC(Nc2cncc(-c3cnc(Oc4cccc(Cl)c4F)nc3)c2)C1 [Example 2, 1-[3-[[5-[2-(3-chloro-2-fluoro-phenoxy)pyrimidin-5-yl]-3-pyridyl]amino]azetidin-1-yl]prop-2-en-1-one]
7 | 6.88 ± 1.37 | 194 ± 47.9 | 135 ± 66.5 | C=CC(=O)N1C[C@@H](Nc2cncc(-c3cnc(Oc4cccc(Cl)c4)nc3)n2)[C@@H]1C (single isomer, unassigned; isomer 1) [Example 32]
8 | < 5 | 37.3 ± 26.1 | 107 ± 45.4 | C=CC(=O)N1CC(Nc2cncc(-c3cnc(Nc4ccc(F)c(Cl)c4)nc3)n2)C1 [Example 35, 1-[3-[[6-[2-(3-chloro-4-fluoro-anilino)pyrimidin-5-yl]pyrazin-2-yl]amino]azetidin-1-yl]prop-2-en-1-one]
9 | < 5 | 676 ± 23 | 105 ± 43 | C=CC(=O)N1CC(Nc2cncc(-c3cnc(Nc4ccccc4OC(F)(F)F)nc3)n2)C1 [Example 43, 1-[3-[[6-[2-[2-(trifluoromethoxy)anilino]pyrimidin-5-yl]pyrazin-2-yl]amino]azetidin-1-yl]prop-2-en-1-one]
10 | 19.3 ± 3.28 | 1580 ± 110 | 306 ± 63.6 | C=CC(=O)N1CC(Nc2cncc(-c3cnc(Oc4cccc(F)c4)nc3)n2)C1 [Example 25, 1-[3-[[6-[2-(3-fluorophenoxy)pyrimidin-5-yl]pyrazin-2-yl]amino]azetidin-1-yl]prop-2-en-1-one]
11 | 5.6 | 1460 ± 200 | 103 ± 60.6 | C=CC(=O)N1CC[C@H](Nc2cncc(-c3cnc(Nc4cccc(OC(F)F)c4)nc3)n2)C1 [Example 39, 1-[(3S)-3-[[6-[2-[3-(difluoromethoxy)anilino]pyrimidin-5-yl]pyrazin-2-yl]amino]pyrrolidin-1-yl]prop-2-en-1-one]
12 | 17.7 ± 1.35 | 3470 ± 911 | 584 ± 372 | C=CC(=O)N1CC(C)(Nc2cncc(-c3cnc(Oc4cccc(Cl)c4)nc3)n2)C1 [Example 29, 1-[3-[[6-[2-(3-chlorophenoxy)pyrimidin-5-yl]pyrazin-2-yl]amino]-3-methyl-azetidin-1-yl]prop-2-en-1-one]
13 | 6.89 ± 0.835 | 908 ± 546 | 66.6 ± 19.9 | C=CC(=O)N1CCC(Nc2cncc(-c3cnc(Oc4cccc(OC(F)F)c4)nc3)n2)CC1 [Example 38, 1-[4-[[6-[2-[3-(difluoromethoxy)phenoxy]pyrimidin-5-yl]pyrazin-2-yl]amino]-1-piperidyl]prop-2-en-1-one]
14 | 6.7 | 6100 | 355 ± 39 | C=CC(=O)N1CCC(Nc2cncc(-c3cnc(Nc4cccc(Cl)c4)nc3)c2)CC1C (centres unmarked) [Example 47, 1-[4-[[5-[2-(3-chloroanilino)pyrimidin-5-yl]-3-pyridyl]amino]-2-methyl-1-piperidyl]prop-2-en-1-one]
15 | 19.4 ± 1.67 | 2820 ± 492 | 226 ± 53 | C=CC(=O)N1CC(Nc2cncc(-c3cnc(Oc4cccc(OC)c4)nc3)n2)C1 [Example 42, 1-[3-[[6-[2-(3-methoxyphenoxy)pyrimidin-5-yl]pyrazin-2-yl]amino]azetidin-1-yl]prop-2-en-1-one]
16 | 60.6 ± 0.351 | 3760 ± 1400 | 655 ± 295 | C=CC(=O)N1CC(Nc2cncc(-c3cnc(Oc4ccc(F)c(OC(F)F)c4)nc3)c2)C1 [Example 9, 1-[3-[[5-[2-[3-(difluoromethoxy)-4-fluoro-phenoxy]pyrimidin-5-yl]-3-pyridyl]amino]azetidin-1-yl]prop-2-en-1-one]
17 | 96.8 ± 15.6 | 2110 ± 487 | 2160 ± 420 | C=CC(=O)N1CC(Nc2cncc(-c3cnc(Oc4ccc(Cl)cc4)nc3)n2)C1 [Example 41, 1-[3-[[6-[2-(4-chlorophenoxy)pyrimidin-5-yl]pyrazin-2-yl]amino]azetidin-1-yl]prop-2-en-1-one]
18 | 6.72 ± 1.7 | 15200 ± 654 | 161 ± 71 | C=CC(=O)N1CC[C@H](Nc2cncc(-c3cnc(Nc4ccccc4OC(F)(F)F)nc3)n2)C1 [Example 36, 1-[(3S)-3-[[6-[2-[2-(trifluoromethoxy)anilino]pyrimidin-5-yl]pyrazin-2-yl]amino]pyrrolidin-1-yl]prop-2-en-1-one]
19 | 18.3 | 639 ± 256 | 130 ± 44.7 | C=CC(=O)N1CC[C@H](Nc2cncc(-c3cnc(Nc4cccc(Cl)c4)nc3)n2)C1 [Example 34, 1-[(3S)-3-[[6-[2-(3-chloroanilino)pyrimidin-5-yl]pyrazin-2-yl]amino]pyrrolidin-1-yl]prop-2-en-1-one]
20 | 72.4 ± 4.22 | 5180 ± 441 | 671 ± 236 | C=CC(=O)N1CC[C@H](Nc2cncc(-c3cnc(Oc4cccc(Cl)c4)nc3)c2)C1 [Example 6, 1-[(3S)-3-[[5-[2-(3-chlorophenoxy)pyrimidin-5-yl]-3-pyridyl]amino]pyrrolidin-1-yl]prop-2-en-1-one]
21 | 34.5 ± 8.08 | – | 263 ± 129 | C=CC(=O)N1CC(Nc2cncc(-c3cnc(Oc4cccc(OC(F)(F)F)c4)nc3)c2)C1 [Example 10, 1-[3-[[5-[2-[3-(trifluoromethoxy)phenoxy]pyrimidin-5-yl]-3-pyridyl]amino]azetidin-1-yl]prop-2-en-1-one]
22 | – | – | 595 ± 326 | C=CC(=O)N1CC(Nc2cncc(-c3cnc(Oc4cccc(C#N)c4)nc3)c2)C1 [Example 3, 3-[5-[5-[(1-prop-2-enoylazetidin-3-yl)amino]-3-pyridyl]pyrimidin-2-yl]oxybenzonitrile]
23 | – | – | 242 ± 64.3 | C=CC(=O)N1CC[C@H](Nc2cncc(-c3cnc(Nc4cccc(C)n4)nc3)c2)C1 [Example 17, 1-{(3S)-3-[(5-{2-[(6-methylpyridin-2-yl)amino]pyrimidin-5-yl}pyridin-3-yl)amino]pyrrolidin-1-yl}prop-2-en-1-one]
24 | – | – | 118 ± 56 | C=CC(=O)N1CC[C@H](Nc2cncc(-c3cnc(Nc4cccc(OC(F)F)c4)nc3)c2)C1 [Example 16, (S)-1-(3-((5-(2-((3-(difluoromethoxy)phenyl)amino)pyrimidin-5-yl)pyridin-3-yl)amino)pyrrolidin-1-yl)prop-2-en-1-one]
